Data as given in patent US20230072683A1, “PYRIDO-PYRIMIDIN DERIVATIVES AND PHARMACEUTICAL COMPOSITION, FOR USE IN PREVENTING OR TREATING PI3 KINASE RELATED DISEASES, COMPRISING SAME AS ACTIVE INGREDIENT” (BORYUNG PHARMACEUTICAL CO., LTD, priority 2019, published 2023).

Experiments:
DNA-PK(h) = DNA-PK(h) (Homo sapiens, UniProt P78527); assay: Evaluation of inhibitory activity against DNA-PK (HTRF kinase assay, GST-cMyc-p53 substrate); type: biochemical; settings: for inhibition at 0.01 µM: compound concentration 0.01 μM, read-out: EXP_VALUE(% Inhibition) DNA-PK(h) 0.01 μM; for inhibition at 0.1 µM: compound concentration 0.1 μM, read-out: EXP_VALUE(% Inhibition) DNA-PK(h) 0.1 μM
Method in brief: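 Human DNA-PK with 50 μM GST-cMyc-p53 substrate; reaction started with Mg/ATP, run 30 min at room temperature, stopped with EDTA. Phospho-Ser15 p53 detected by HTRF (Eu anti-phospho-Ser15, d2 anti-GST), signal = 10000×(Em 665/Em 620).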

[1] = molecular target: PI3K-δ (PI3K(p1108/p857) (h)) (Homo sapiens, UniProt O00329); assay: Evaluation of inhibitory activity against PI3K-δ (HTRF kinase assay); type: biochemical; settings: for inhibition at 0.01 µM: compound concentration 0.01 μM, read-out: EXP_VALUE(% Inhibition) PI3K-δ 0.01 μM; for inhibition at 0.1 µM: compound concentration 0.1 μM, read-out: EXP_VALUE(% Inhibition) PI3K-δ 0.1 μM
Chain of PI3K-δ (PI3K(p1108/p857) (h)) (O00329 whole entry, the tested form may be a part): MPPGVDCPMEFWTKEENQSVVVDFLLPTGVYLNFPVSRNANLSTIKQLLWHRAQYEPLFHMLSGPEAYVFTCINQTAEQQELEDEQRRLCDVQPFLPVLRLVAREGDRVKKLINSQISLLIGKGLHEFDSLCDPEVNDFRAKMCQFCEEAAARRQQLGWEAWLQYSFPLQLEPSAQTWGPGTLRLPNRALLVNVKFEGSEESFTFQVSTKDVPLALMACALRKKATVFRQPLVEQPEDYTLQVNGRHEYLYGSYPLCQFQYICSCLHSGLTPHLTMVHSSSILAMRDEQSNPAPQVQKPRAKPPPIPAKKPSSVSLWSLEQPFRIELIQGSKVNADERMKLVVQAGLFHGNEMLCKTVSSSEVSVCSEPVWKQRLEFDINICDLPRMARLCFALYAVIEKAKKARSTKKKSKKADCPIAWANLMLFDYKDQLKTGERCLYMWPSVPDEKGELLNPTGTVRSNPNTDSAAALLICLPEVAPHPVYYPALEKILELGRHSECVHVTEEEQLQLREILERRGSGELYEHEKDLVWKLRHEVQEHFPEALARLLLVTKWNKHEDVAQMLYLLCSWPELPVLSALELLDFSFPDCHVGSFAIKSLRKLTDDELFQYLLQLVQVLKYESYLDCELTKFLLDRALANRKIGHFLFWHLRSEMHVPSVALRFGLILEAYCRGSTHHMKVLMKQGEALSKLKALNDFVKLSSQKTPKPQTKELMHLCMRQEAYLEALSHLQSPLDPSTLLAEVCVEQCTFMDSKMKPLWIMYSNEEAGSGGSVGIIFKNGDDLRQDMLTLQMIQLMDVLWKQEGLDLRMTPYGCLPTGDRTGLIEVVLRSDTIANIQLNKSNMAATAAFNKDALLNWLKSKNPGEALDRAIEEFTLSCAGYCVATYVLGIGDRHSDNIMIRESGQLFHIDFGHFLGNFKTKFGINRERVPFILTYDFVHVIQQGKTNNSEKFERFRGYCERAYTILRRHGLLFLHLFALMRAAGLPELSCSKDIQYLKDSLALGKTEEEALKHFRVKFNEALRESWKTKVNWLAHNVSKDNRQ
Chain of PI3K-δ (PI3K(p1108/p857) (h)) (P27986 whole entry partner, the tested form may be a part): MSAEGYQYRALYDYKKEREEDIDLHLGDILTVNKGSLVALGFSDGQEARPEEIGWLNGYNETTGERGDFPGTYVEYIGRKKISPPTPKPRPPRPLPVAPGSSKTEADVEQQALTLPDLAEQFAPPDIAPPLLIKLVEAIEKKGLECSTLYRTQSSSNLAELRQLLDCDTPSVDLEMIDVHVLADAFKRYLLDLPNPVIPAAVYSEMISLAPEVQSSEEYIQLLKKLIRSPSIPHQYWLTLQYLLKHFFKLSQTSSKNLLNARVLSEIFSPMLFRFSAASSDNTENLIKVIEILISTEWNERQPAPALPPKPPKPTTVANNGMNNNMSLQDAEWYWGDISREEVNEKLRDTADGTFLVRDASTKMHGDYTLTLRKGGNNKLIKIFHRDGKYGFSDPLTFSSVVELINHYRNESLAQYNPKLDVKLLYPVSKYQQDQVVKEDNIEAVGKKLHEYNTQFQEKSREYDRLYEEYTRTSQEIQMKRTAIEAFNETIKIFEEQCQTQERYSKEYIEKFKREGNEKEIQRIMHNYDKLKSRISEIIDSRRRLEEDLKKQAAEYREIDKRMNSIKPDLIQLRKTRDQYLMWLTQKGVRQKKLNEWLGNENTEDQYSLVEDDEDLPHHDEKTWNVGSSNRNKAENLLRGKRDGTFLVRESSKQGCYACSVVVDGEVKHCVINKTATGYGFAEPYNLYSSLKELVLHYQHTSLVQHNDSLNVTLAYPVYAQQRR
Method in brief: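 HTRF read-out (665/620 nm ratio ×10000) used Eu-labelled anti-GST, GST-tagged GRP1 PH domain and streptavidin-allophycocyanin after EDTA/PIP3 stop.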

| SMILES | inhibition at 0.01 µM (DNA-PK(h)) | inhibition at 0.01 µM [1] | inhibition at 0.1 µM (DNA-PK(h)) | inhibition at 0.1 µM [1] |
| --- | --- | --- | --- | --- |
| C[C@H](Nc1ncnc2[nH]ccc(=O)c12)c1c(Cl)c2cccc(-c3ccc4nonc4c3)c2c(=O)n1-c1ccccc1 [Example 240, (S)-4-((1-(8-(benzo[c][1,2,5]oxadiazol-5-yl)-4-chloro-1-oxo-2-phenyl-1,2-dihydroisoquinolin-3-yl)ethyl)amino)pyrido[2,3-d]pyrimidin-5(8H)-one] | 22% | 61% | – | – |
| C[C@H](Nc1ncnc2[nH]ccc(=O)c12)c1c(Cl)c2cccc(-c3ccc4ocnc4c3)c2c(=O)n1-c1ccccc1 [Example 241, (S)-4-((1-(8-(benzo[d]oxazol-5-yl)-4-chloro-1-oxo-2-phenyl-1,2-dihydroisoquinolin-3-yl)ethyl)amino)pyrido[2,3-d]pyrimidin-5(8H)-one] | 49% | 32% | – | – |
| Cc1csc(-c2cccc3c(Cl)c([C@H](C)Nc4ncnc5[nH]ccc(=O)c45)n(-c4ccccc4)c(=O)c23)c1 [Example 242, (S)-4-((1-(4-chloro-8-(4-methylthiophen-2-yl)-1-oxo-2-phenyl-1,2-dihydroisoquinolin-3-yl)ethyl)amino)pyrido[2,3-d]pyrimidin-5(8H)-one] | 65% | 69% | – | – |
| Cc1ccsc1-c1cccc2c(Cl)c([C@H](C)Nc3ncnc4[nH]ccc(=O)c34)n(-c3ccccc3)c(=O)c12 [Example 243, (S)-4-((1-(4-chloro-8-(3-methylthiophen-2-yl)-1-oxo-2-phenyl-1,2-dihydroisoquinolin-3-yl)ethyl)amino)pyrido[2,3-d]pyrimidin-5(8H)-one] | 32% | 45% | – | – |
| Cc1c[nH]nc1-c1cccc2c(Cl)c([C@H](C)Nc3ncnc4[nH]ccc(=O)c34)n(-c3ccccc3)c(=O)c12 [Example 244, (S)-4-((1-(4-chloro-8-(4-methyl-1H-pyrazol-3-yl)-1-oxo-2-phenyl-1,2-dihydroisoquinolin-3-yl)ethyl)amino)pyrido[2,3-d]pyrimidin-5(8H)-one] | 7% | 65% | – | – |
| C[C@H](Nc1ncnc2[nH]ccc(=O)c12)c1c(Cl)c2cccc(CN3CCOCC3)c2c(=O)n1-c1ccccc1 [Example 245, (S)-4-((1-(4-chloro-8-(morpholinomethyl)-1-oxo-2-phenyl-1,2-dihydroisoquinolin-3-yl)ethyl)amino)pyrido[2,3-d]pyrimidin-5(8H)-one] | 43% | 52% | – | – |
| CNc1ccc(-c2cccc3c(Cl)c([C@H](C)Nc4ncnc5[nH]ccc(=O)c45)n(-c4ccccc4)c(=O)c23)cn1 [Example 246, (S)-4-((1-(4-chloro-8-(6-(methylamino)pyridin-3-yl)-1-oxo-2-phenyl-1,2-dihydroisoquinolin-3-yl)ethyl)amino)pyrido[2,3-d]pyrimidin-5(8H)-one] | 79% | 85% | – | – |
| C[C@H](Nc1ncnc2[nH]ccc(=O)c12)c1c(Cl)c2cccc(-c3ccc(OC(F)(F)F)cc3)c2c(=O)n1-c1ccccc1 [Example 247, (S)-4-((1-(4-chloro-1-oxo-2-phenyl-8-(4-(trifluoromethoxy)phenyl)-1,2-dihydroisoquinolin-3-yl)ethyl)amino)pyrido[2,3-d]pyrimidin-5(8H)-one] | 21% | 75% | – | – |
| Cc1ccc(-c2cccc3c(Cl)c([C@H](C)Nc4ncnc5[nH]ccc(=O)c45)n(-c4ccccc4)c(=O)c23)c(C)n1 [Example 248, (S)-4-((1-(4-chloro-8-(2,6-dimethylpyridin-3-yl)-1-oxo-2-phenyl-1,2-dihydroisoquinolin-3-yl)ethyl)amino)pyrido[2,3-d]pyrimidin-5(8H)-one] | 66% | 99% | – | – |
| C[C@H](Nc1ncnc2[nH]ccc(=O)c12)c1c(Cl)c2cccc(N(C)C)c2c(=O)n1-c1ccccc1 [Example 249, (S)-4-((1-(4-chloro-8-(dimethylamino)-1-oxo-2-phenyl-1,2-dihydroisoquinolin-3-yl)ethyl)amino)pyrido[2,3-d]pyrimidin-5(8H)-one] | 11% | 69% | 69% | 98% |
| C[C@H](Nc1ncnc2[nH]ccc(=O)c12)c1c(Cl)c2cccc(N3CCN(C)CC3)c2c(=O)n1-c1ccccc1 [Example 250, (S)-4-((1-(4-chloro-8-(4-methylpiperazin-1-yl)-1-oxo-2-phenyl-1,2-dihydroisoquinolin-3-yl)ethyl)amino)pyrido[2,3-d]pyrimidin-5(8H)-one] | 0% | 32% | 57% | 82% |
| C[C@H](Nc1ncnc2[nH]ccc(=O)c12)c1c(Cl)c2cccc(N3CCOCC3)c2c(=O)n1-c1ccccc1 [Example 251, (S)-4-((1-(4-chloro-8-morpholino-1-oxo-2-phenyl-1,2-dihydroisoquinolin-3-yl)ethyl)amino)pyrido[2,3-d]pyrimidin-5(8H)-one] | 6% | 65% | 60% | 109% |
| C[C@H](Nc1ncnc2[nH]ccc(=O)c12)c1c(Cl)c2cccc(N3CCCC3)c2c(=O)n1-c1ccccc1 [Example 252, (S)-4-((1-(4-chloro-1-oxo-2-phenyl-8-(pyrrolidin-1-yl)-1,2-dihydroisoquinolin-3-yl)ethyl)amino)pyrido[2,3-d]pyrimidin-5(8H)-one] | 4% | 53% | 42% | 97% |
| C[C@H](Nc1ncnc2[nH]ccc(=O)c12)c1c(Cl)c2cccc(-c3ccc4c(c3)OCCO4)c2c(=O)n1-c1ccccc1 [Example 253, (S)-4-((1-(4-chloro-8-(2,3-dihydrobenzo[b][1,4]dioxin-6-yl)-1-oxo-2-phenyl-1,2-dihydroisoquinolin-3-yl)ethyl)amino)pyrido[2,3-d]pyrimidin-5(8H)-one] | 78% | 105% | 97% | 102% |
| C[C@H](Nc1ncnc2[nH]ccc(=O)c12)c1c(Cl)c2cccc(-c3ccc(-c4ccccc4)cc3)c2c(=O)n1-c1ccccc1 [Example 254, (S)-4-((1-(8-([1,1′-biphenyl]-4-yl)-4-chloro-1-oxo-2-phenyl-1,2-dihydroisoquinolin-3-yl)ethyl)amino)pyrido[2,3-d]pyrimidin-5(8H)-one] | 40% | 96% | 82% | 110% |
| Cc1ccc(-c2cccc3c(Cl)c([C@H](C)Nc4ncnc5[nH]ccc(=O)c45)n(-c4ccccc4)c(=O)c23)cc1 [Example 255, (S)-4-((1-(4-chloro-1-oxo-2-phenyl-8-(p-tolyl)-1,2-dihydroisoquinolin-3-yl)ethyl)amino)pyrido[2,3-d]pyrimidin-5(8H)-one] | 15.6% | 25.1% | 73.6% | 50.9% |
| C[C@H](Nc1ncnc2[nH]ccc(=O)c12)c1c(Cl)c2cccc(-c3ccc(C(F)(F)F)cc3Cl)c2c(=O)n1-c1ccccc1 [Example 256, (S)-4-((1-(4-chloro-8-(2-chloro-4-(trifluoromethyl)phenyl)-1-oxo-2-phenyl-1,2-dihydroisoquinolin-3-yl)ethyl)amino)pyrido[2,3-d]pyrimidin-5(8H)-one] | 44% | 75% | 77% | 100% |
| Cc1ccc(-c2cccc3c(Cl)c([C@H](C)Nc4ncnc5[nH]ccc(=O)c45)n(-c4ccccc4)c(=O)c23)cn1 [Example 257, (S)-4-((1-(4-chloro-8-(6-methylpyridin-3-yl)-1-oxo-2-phenyl-1,2-dihydroisoquinolin-3-yl)ethyl)amino)pyrido[2,3-d]pyrimidin-5(8H)-one] | 75% | 68% | 98% | 98% |
| C[C@H](Nc1ncnc2[nH]ccc(=O)c12)c1c(Cl)c2cccc(-c3ccc[nH]3)c2c(=O)n1-c1ccccc1 [Example 258, (S)-4-((1-(4-chloro-1-oxo-2-phenyl-8-(1H-pyrrol-2-yl)-1,2-dihydroisoquinolin-3-yl)ethyl)amino)pyrido[2,3-d]pyrimidin-5(8H)-one] | 13% | 86% | 12% | 101% |
| C[C@H](Nc1ncnc2[nH]ccc(=O)c12)c1c(Cl)c2cccc(-c3ccc(C#N)cc3)c2c(=O)n1-c1ccccc1 [Example 259, (S)-4-(4-chloro-1-oxo-3-(1-((5-oxo-5,8-dihydropyrido[2,3-d]pyrimidin-4-yl)amino)ethyl)-2-phenyl-1,2-dihydroisoquinolin-8-yl)benzonitrile] | 50% | 108% | 86% | 116% |
| Cc1c[nH]c2ccc(-c3cccc4cc([C@H](C)Nc5ncnc6[nH]ccc(=O)c56)n(-c5ccccc5)c(=O)c34)cc12 [Example 263, (S)-4-((1-(8-(3-methyl-1H-indol-5-yl)-1-oxo-2-phenyl-1,2-dihydroisoquinolin-3-yl)ethyl)amino)pyrido[2,3-d]pyrimidin-5(8H)-one] | 6% | 77% | 52% | 89% |
